Assays:
Type in all cases: in vivo
[1] = tested on: sicklepod (Cassia obtusifolia, CASOB); assay: Pre-emerge test, greenhouse herbicide activity screening; settings: pre-emerge, rated 14 days after application, 0 = no damage, 100 = complete death
Summary of the method: (§1)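 Plants grown in 10 cm pots of sandy loam mix received acetone-dissolved compounds through a moving flat-fan nozzle. Doses ranged from 15 to 1000 g ai/ha. Pre-emerge pots were seeded one day earlier, post-emerge pots 8–21 days earlier. Fourteen days on, each pot was graded 0–100 for damage.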

[2] = tested on: velvetleaf (Abutilon theophrasti, ABUTH); assay: as above; settings: pre-emerge, rated 14 days after application, 0 = no damage, 100 = complete death
Summary of the method: as §1

[3] = tested on: barnyardgrass (Echinochloa crus-galli, ECHCG); assay: as above; settings: pre-emerge, rated 14 days after application, 0 = no damage, 100 = complete death
Summary of the method: as §1

[4] = tested on: johnsongrass (Sorghum halepense, SORHA); assay: as above; settings: pre-emerge, rated 14 days after application, 0 = no damage, 100 = complete death
Summary of the method: as §1

[5] = tested on: lambsquarters (Chenopodium album, CHEAL); assay: as above; settings: pre-emerge, rated 14 days after application, 0 = no damage, 100 = complete death
Summary of the method: as §1

[6] = tested on: green foxtail (Setaria viridis, SETVI); assay: as above; settings: pre-emerge, rated 14 days after application, 0 = no damage, 100 = complete death
Summary of the method: as §1

[7] = tested on: large crabgrass (Digitaria sanguinalis, DIGSA); assay: as above; settings: pre-emerge, rated 14 days after application, 0 = no damage, 100 = complete death
Summary of the method: as §1

[8] = tested on: ivyleaf morningglory (Ipomoea hederacea, IPOHE); assay: as above; settings: pre-emerge, rated 14 days after application, 0 = no damage, 100 = complete death
Summary of the method: as §1

[9] = tested on: upland rice (Oryza sp., var. Tebonnet, RICE); assay: Pre-emerge test, crop safety; settings: pre-emerge, rated 14 days after application, 0 = no damage, 100 = complete death
Summary of the method: (§2)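 Compounds in acetone were track-sprayed at 187 l/ha, 15–1000 g ai/ha, onto sandy loam pots. Pre-emerge seeds were sown one day before spraying, with surface watering afterwards. Post-emerge plants were at the 2–3 leaf stage and sprayed with 0.25% v/v non-ionic surfactant. Injury was rated 0–100 at 14 days.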

[10] = tested on: field corn (Zea mays L., var. Dekalb 535, CORN); assay: Pre-emerge test, crop safety; settings: pre-emerge, rated 14 days after application, 0 = no damage, 100 = complete death
Summary of the method: as §2

[11] = tested on: sicklepod (Cassia obtusifolia, CASOB); assay: Post-emerge test, greenhouse herbicide activity screening; settings: 14 days after application; for Post-emerge Herbicidal Activity CASOB: phytotoxicity rating 0-100 (0 no damage, 100 complete death); for phytotoxicity rating CASOB: post-emerge, rating scale 0-100
Summary of the method: (§3)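 Rating: 0–100 visual injury, 14 DAA. Application: acetone, 187 l/ha, 15–1000 g ai/ha, flat-fan track sprayer with nozzle 40–45 cm above soil or canopy. Post-emerge runs used 0.25% v/v surfactant on 2–3 leaf plants.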

[12] = tested on: velvetleaf (Abutilon theophrasti, ABUTH); assay: as above; settings: 14 days after application; for Post-emerge Herbicidal Activity ABUTH: phytotoxicity rating 0-100 (0 no damage, 100 complete death); for phytotoxicity rating ABUTH: post-emerge, rating scale 0-100
Summary of the method: as §3

[13] = tested on: barnyardgrass (Echinochloa crus-galli, ECHCG); assay: as above; settings: 14 days after application; for Post-emerge Herbicidal Activity ECHCG: phytotoxicity rating 0-100 (0 no damage, 100 complete death); for phytotoxicity rating ECHCG: post-emerge, rating scale 0-100
Summary of the method: as §3

[14] = tested on: redroot pigweed (Amaranthus retroflexus, AMARE); assay: as above; settings: 14 days after application; for Post-emerge Herbicidal Activity AMARE: phytotoxicity rating 0-100 (0 no damage, 100 complete death); for phytotoxicity rating AMARE: post-emerge, rating scale 0-100
Summary of the method: as §3

[15] = tested on: johnsongrass (Sorghum halepense, SORHA); assay: as above; settings: 14 days after application; for Post-emerge Herbicidal Activity SORHA: phytotoxicity rating 0-100 (0 no damage, 100 complete death); for phytotoxicity rating SORHA: post-emerge, rating scale 0-100
Summary of the method: as §3

[16] = tested on: common ragweed (Ambrosia artemisizfolia L., AMBEL); assay: as above; settings: post-emerge, 14 days after application, rating scale 0-100
Summary of the method: as §3

[17] = tested on: lambsquarters (Chenopodium album, CHEAL); assay: as above; settings: 14 days after application; for Post-emerge Herbicidal Activity CHEAL: phytotoxicity rating 0-100 (0 no damage, 100 complete death); for phytotoxicity rating CHEAL: post-emerge, rating scale 0-100
Summary of the method: as §3

[18] = tested on: green foxtail (Setaria viridis, SETVI); assay: as above; settings: 14 days after application; for Post-emerge Herbicidal Activity SETVI: phytotoxicity rating 0-100 (0 no damage, 100 complete death); for phytotoxicity rating SETVI: post-emerge, rating scale 0-100
Summary of the method: as §3

[19] = tested on: large crabgrass (Digitaria sanguinalis, DIGSA); assay: as above; settings: 14 days after application; for Post-emerge Herbicidal Activity DIGSA: phytotoxicity rating 0-100 (0 no damage, 100 complete death); for phytotoxicity rating DIGSA: post-emerge, rating scale 0-100
Summary of the method: as §3

[20] = tested on: ivyleaf morningglory (Ipomoea hederacea, IPOHE); assay: as above; settings: 14 days after application; for Post-emerge Herbicidal Activity IPOHE: phytotoxicity rating 0-100 (0 no damage, 100 complete death); for phytotoxicity rating IPOHE: post-emerge, rating scale 0-100
Summary of the method: as §3

[21] = tested on: upland rice (Oryza sp., var. Tebonnet, RICE); assay: Post-emerge test, crop safety; settings: 14 days after application; for Post-emerge Herbicidal Activity RICE (crop damage): phytotoxicity rating 0-100 (0 no damage, 100 complete death); for phytotoxicity rating RICE: post-emerge, rating scale 0-100
Summary of the method: (§4)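 Each test used a mechanized track sprayer delivering 187 l/ha of acetone solution at 15–1000 g ai/ha. Post-emerge foliage at 2–3 leaves was treated with added 0.25% v/v non-ionic surfactant and bottom-watered only. Injury was assessed on day 14, where 100 means total kill.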

[22] = tested on: field corn (Zea mays L., var. Dekalb 535, CORN); assay: Post-emerge test, crop safety; settings: 14 days after application; for Post-emerge Herbicidal Activity CORN (crop damage): phytotoxicity rating 0-100 (0 no damage, 100 complete death); for phytotoxicity rating CORN: post-emerge, rating scale 0-100
Summary of the method: as §4

[23] = tested on: redroot pigweed (Amaranthus retroflexus, AMARE); assay: Pre-emerge test, greenhouse herbicide activity screening; settings: pre-emerge, rated 14 days after application, 0 = no damage, 100 = complete death
Summary of the method: as §1

## COc1c(Cl)cc(F)c(-n2c(=O)cc(C(F)(F)F)n(C)c2=O)c1NC(=O)CC#N [2-14]
[1]; 63 g ai/ha
  Pre-emerge Herbicidal Activity CASOB (phytotoxicity rating, scale 0-100): 0
[1]; 250 g ai/ha
  Pre-emerge Herbicidal Activity CASOB (phytotoxicity rating, scale 0-100): 60
[2]; 63 g ai/ha
  Pre-emerge Herbicidal Activity ABUTH (phytotoxicity rating, scale 0-100): 90
[2]; 250 g ai/ha
  Pre-emerge Herbicidal Activity ABUTH (phytotoxicity rating, scale 0-100): 100
[3]; 63 g ai/ha
  Pre-emerge Herbicidal Activity ECHCG (phytotoxicity rating, scale 0-100): 0
[3]; 250 g ai/ha
  Pre-emerge Herbicidal Activity ECHCG (phytotoxicity rating, scale 0-100): 0
[4]; 63 g ai/ha
  Pre-emerge Herbicidal Activity SORHA (phytotoxicity rating, scale 0-100): 0
[4]; 250 g ai/ha
  Pre-emerge Herbicidal Activity SORHA (phytotoxicity rating, scale 0-100): 30
[5]; 63 g ai/ha
  Pre-emerge Herbicidal Activity CHEAL (phytotoxicity rating, scale 0-100): 50
[5]; 250 g ai/ha
  Pre-emerge Herbicidal Activity CHEAL (phytotoxicity rating, scale 0-100): 100
[6]; 63 g ai/ha
  Pre-emerge Herbicidal Activity SETVI (phytotoxicity rating, scale 0-100): 60
[6]; 250 g ai/ha
  Pre-emerge Herbicidal Activity SETVI (phytotoxicity rating, scale 0-100): 100
[7]; 63 g ai/ha
  Pre-emerge Herbicidal Activity DIGSA (phytotoxicity rating, scale 0-100): 0
[7]; 250 g ai/ha
  Pre-emerge Herbicidal Activity DIGSA (phytotoxicity rating, scale 0-100): 20
[8]; 63 g ai/ha
  Pre-emerge Herbicidal Activity IPOHE (phytotoxicity rating, scale 0-100): 0
[8]; 250 g ai/ha
  Pre-emerge Herbicidal Activity IPOHE (phytotoxicity rating, scale 0-100): 100
[9]; 63 g ai/ha
  Pre-emerge crop damage RICE (phytotoxicity rating, scale 0-100): 0
[9]; 250 g ai/ha
  Pre-emerge crop damage RICE (phytotoxicity rating, scale 0-100): 30
[10]; 63 g ai/ha
  Pre-emerge crop damage CORN (phytotoxicity rating, scale 0-100): 0
[10]; 250 g ai/ha
  Pre-emerge crop damage CORN (phytotoxicity rating, scale 0-100): 0
[11]; 63 g ai/ha
  Post-emerge Herbicidal Activity CASOB: 10
  phytotoxicity rating CASOB: 40
[11]; 250 g ai/ha
  Post-emerge Herbicidal Activity CASOB: 10
  phytotoxicity rating CASOB: 70
[12]; 63 g ai/ha
  Post-emerge Herbicidal Activity ABUTH: 90
  phytotoxicity rating ABUTH: 100
[12]; 250 g ai/ha
  Post-emerge Herbicidal Activity ABUTH: 95
  phytotoxicity rating ABUTH: 100
[13]; 63 g ai/ha
  Post-emerge Herbicidal Activity ECHCG: 0
  phytotoxicity rating ECHCG: 30
[13]; 250 g ai/ha
  Post-emerge Herbicidal Activity ECHCG: 0
  phytotoxicity rating ECHCG: 40
[14]; 63 g ai/ha
  Post-emerge Herbicidal Activity AMARE: 40
  phytotoxicity rating AMARE: 85
[14]; 250 g ai/ha
  Post-emerge Herbicidal Activity AMARE: 70
  phytotoxicity rating AMARE: 100
[15]; 63 g ai/ha
  Post-emerge Herbicidal Activity SORHA: 0
  phytotoxicity rating SORHA: 20
[15]; 250 g ai/ha
  Post-emerge Herbicidal Activity SORHA: 0
  phytotoxicity rating SORHA: 20
[16]; 63 g ai/ha
  phytotoxicity rating AMBEL: 60
[16]; 250 g ai/ha
  phytotoxicity rating AMBEL: 90
[17]; 63 g ai/ha
  Post-emerge Herbicidal Activity CHEAL: 30
  phytotoxicity rating CHEAL: 80
[17]; 250 g ai/ha
  Post-emerge Herbicidal Activity CHEAL: 40
  phytotoxicity rating CHEAL: 100
[18]; 63 g ai/ha
  Post-emerge Herbicidal Activity SETVI: 0
  phytotoxicity rating SETVI: 20
[18]; 250 g ai/ha
  Post-emerge Herbicidal Activity SETVI: 0
  phytotoxicity rating SETVI: 50
[19]; 63 g ai/ha
  Post-emerge Herbicidal Activity DIGSA: 0
  phytotoxicity rating DIGSA: 10
[19]; 250 g ai/ha
  Post-emerge Herbicidal Activity DIGSA: 0
  phytotoxicity rating DIGSA: 20
[20]; 63 g ai/ha
  Post-emerge Herbicidal Activity IPOHE: 40
  phytotoxicity rating IPOHE: 70
[20]; 250 g ai/ha
  Post-emerge Herbicidal Activity IPOHE: 80
  phytotoxicity rating IPOHE: 90
[21]; 63 g ai/ha
  Post-emerge Herbicidal Activity RICE (crop damage): 10
  phytotoxicity rating RICE: 60
[21]; 250 g ai/ha
  Post-emerge Herbicidal Activity RICE (crop damage): 30
  phytotoxicity rating RICE: 90
[22]; 63 g ai/ha
  Post-emerge Herbicidal Activity CORN (crop damage): 0
  phytotoxicity rating CORN: 50
[22]; 250 g ai/ha
  Post-emerge Herbicidal Activity CORN (crop damage): 10
  phytotoxicity rating CORN: 60
[23]; 63 g ai/ha
  Pre-emerge Herbicidal Activity AMARE (phytotoxicity rating, scale 0-100): 50
[23]; 250 g ai/ha
  Pre-emerge Herbicidal Activity AMARE (phytotoxicity rating, scale 0-100): 100

Source: patent US6355799B1, “Substituted benzene compounds, process for their preparation, and herbicidal and defoliant compositions containing them” (ISK Americas Incorporated, priority 1997, dated 2002)
